Measurements taken from patent US8912209B2, “Rock inhibitors” (Amakem NV, priority 2010, dated 2014).

The compounds below were run against T1, ROCKα/ROCKII (Homo sapiens, UniProt O75116) (assay: ROCK inhibition, Method 2 fluorescence polarization (FP) assay, ROCK IMAP Kit). Settings: 10 μM ATP, read-out: IC50 Meth. 2.
T1 construct: purchased Upstate Biotechnology 14-451
T1 sequence (O75116 whole entry): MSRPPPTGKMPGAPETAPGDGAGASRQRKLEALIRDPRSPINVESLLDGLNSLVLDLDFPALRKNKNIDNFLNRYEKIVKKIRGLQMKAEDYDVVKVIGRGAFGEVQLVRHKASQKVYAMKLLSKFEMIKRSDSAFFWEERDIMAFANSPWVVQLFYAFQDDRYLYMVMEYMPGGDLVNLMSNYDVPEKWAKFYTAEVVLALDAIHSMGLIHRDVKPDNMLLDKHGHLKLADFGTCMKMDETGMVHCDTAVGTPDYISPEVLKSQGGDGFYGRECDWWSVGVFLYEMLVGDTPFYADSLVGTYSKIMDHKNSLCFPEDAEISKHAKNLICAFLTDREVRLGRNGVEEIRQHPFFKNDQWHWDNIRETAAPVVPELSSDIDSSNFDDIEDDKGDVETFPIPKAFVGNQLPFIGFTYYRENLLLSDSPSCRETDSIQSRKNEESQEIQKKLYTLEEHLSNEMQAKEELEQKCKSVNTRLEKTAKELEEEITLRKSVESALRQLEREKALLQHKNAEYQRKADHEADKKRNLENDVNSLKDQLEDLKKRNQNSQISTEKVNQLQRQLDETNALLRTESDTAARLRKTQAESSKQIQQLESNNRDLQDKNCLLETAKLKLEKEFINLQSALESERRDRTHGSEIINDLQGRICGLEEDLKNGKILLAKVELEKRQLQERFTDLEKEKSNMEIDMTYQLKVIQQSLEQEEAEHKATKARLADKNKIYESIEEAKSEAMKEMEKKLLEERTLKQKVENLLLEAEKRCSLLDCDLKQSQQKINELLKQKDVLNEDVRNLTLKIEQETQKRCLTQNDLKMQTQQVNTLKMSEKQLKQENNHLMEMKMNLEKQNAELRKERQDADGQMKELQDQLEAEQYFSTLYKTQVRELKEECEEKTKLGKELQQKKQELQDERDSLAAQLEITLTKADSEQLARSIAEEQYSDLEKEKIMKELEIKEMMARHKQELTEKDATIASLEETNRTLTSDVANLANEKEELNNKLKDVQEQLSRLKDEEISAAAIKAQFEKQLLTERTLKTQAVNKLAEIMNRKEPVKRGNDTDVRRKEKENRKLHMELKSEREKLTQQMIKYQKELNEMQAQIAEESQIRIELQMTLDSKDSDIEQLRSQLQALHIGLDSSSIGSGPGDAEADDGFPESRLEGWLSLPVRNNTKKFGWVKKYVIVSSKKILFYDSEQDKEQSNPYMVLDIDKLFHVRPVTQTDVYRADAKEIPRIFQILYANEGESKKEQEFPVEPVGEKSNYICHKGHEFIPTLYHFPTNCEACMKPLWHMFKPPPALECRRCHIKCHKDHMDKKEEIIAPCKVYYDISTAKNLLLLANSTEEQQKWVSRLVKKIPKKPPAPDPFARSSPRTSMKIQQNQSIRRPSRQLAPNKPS
Assay type: biochemical
Procedure: The inhibition assays were performed with a fluorescence polarization (FP) assay using the commercially available ROCK IMAP Kit from Molecular Devices (Product ID. No. R8093), essentially in accordance with the protocol supplied by the manufacturer. […] The enzyme mix ROCKα/ROCKII was obtained from Upstate Biotechnology (Product ID No 14-451).
In summary, all compounds were screened in the wells of a 384 well plate for enzymatic inhibition with concentrations varying from 100 μM to 0.3 nM using a stepwise 3 (or 2)-fold dilution.
To perform the assay, 1 μl of a solution of the compound to be tested in DMSO (at each concentration) was added to 2 μl of a solution of the enzyme in 10 mM Tris-HCl, 10 mM MgCl2, 0.1% BSA, 0.05% NaN3, pH 7,2. The final concentration of the enzyme was 2.6 nM.
After incubating for 30 minutes at RT, 2 μl of a mixture of ATP and the protein substrate in 10 mM Tris-HCl, 10 mM MgCl2, 0.1% BSA, 0.05% NaN3, pH 7.2 was added. The final concentration of the ATP was 10 μM and final concentration of protein substrate was 0.2 μM.
After incubating for 60 minutes at RT, 12 μl of the IMAP Binding Solution (mix of the IMAP Binding Buffer A (1×) and the IMAP Binding Reagent (from the ROCK IMAP kit)) was added.
The mixture thus obtained (total volume: 17 μl) was incubated for 60 minutes at RT, upon which the fluorescence polarization was measured using an automated plate reader (Perkin Elmer, Model Envision 2100-0010 HTS) with FP filters: excitation filter FITC FP 480 and emission filters FITC FP P-pol 535 and FITC FP S-pol 535 (Perkin-Elmer). The results were fitted to a curve using the XL-Fit algorithm and IC50 values were calculated for each fitted curve, again using the XL-Fit algorithm.
In the case of “2′-(1-Amino-ethyl)-5′- (pyridin-4-ylcarbamoyl)- biphenyl-3-carboxylic acid 2-(toluene-4-sulfonyl)-ethyl ester [Compound 89]”, the IC50 is reported as 100 to 1000 nM. For “2′-(1-Amino-ethyl)-5′- (pyridin-4-ylcarbamoyl)- biphenyl-3-carboxylic acid 4-methylsulfanyl-phenyl ester [Compound 86]”, the IC50 was < 100 nM. `COC(=O)c1cccc(-c2cc(C(=O)Nc3ccncc3)ccc2C(C)N)c1` (stereo not drawn) [Compound 4, 2′-(1-Amino-ethyl)-5′-(pyridin-4-ylcarbamoyl)-biphenyl-3-carboxylic acid methyl ester] was tested, and the IC50 was < 100 nM. In the case of `CCOC(=O)c1cccc(-c2cc(C(=O)Nc3ccncc3F)ccc2C(C)N)c1` (stereo not drawn) [Compound 9, 2′-(1-Amino-ethyl)-5′-(3-fluoro-pyridin-4-ylcarbamoyl)-biphenyl-3-carboxylic acid ethyl ester], the IC50 is reported as < 100 nM. `CCCCCOC(=O)c1cccc(-c2cc(C(=O)Nc3ccncc3)ccc2C(C)N)c1` (stereo not drawn) [Compound 16, 2′-(1-Amino-ethyl)-5′-(pyridin-4-ylcarbamoyl)-biphenyl-3-carboxylic acid pentyl ester] gave an IC50 of 100 to 1000 nM. Compound `CCCCCCCOC(=O)c1cccc(-c2cc(C(=O)Nc3ccncc3)ccc2C(C)N)c1` (stereo not drawn) [Compound 18, 2′-(1-Amino-ethyl)-5′-(pyridin-4-ylcarbamoyl)-biphenyl-3-carboxylic acid heptyl ester] has an IC50 of 100 to 1000 nM. With `CCCCCCCCOC(=O)c1cccc(-c2cc(C(=O)Nc3ccncc3)ccc2C(C)N)c1` (stereo not drawn) [Compound 19, 2′-(1-Amino-ethyl)-5′-(pyridin-4-ylcarbamoyl)-biphenyl-3-carboxylic acid octyl ester] the IC50 was 100 to 1000 nM. With `CCCCCCCCCCOC(=O)c1cccc(-c2cc(C(=O)Nc3ccncc3)ccc2C(C)N)c1` (stereo not drawn) [Compound 20, 2′-(1-Amino-ethyl)-5′-(pyridin-4-ylcarbamoyl)-biphenyl-3-carboxylic acid decyl ester] the IC50 was 1000 to 10000 nM. With `CCCCCCCCCCCOC(=O)c1cccc(-c2cc(C(=O)Nc3ccncc3)ccc2C(C)N)c1` (stereo not drawn) [Compound 21, 2′-(1-Amino-ethyl)-5′-(pyridin-4-ylcarbamoyl)-biphenyl-3-carboxylic acid undecyl ester] the IC50 was 1000 to 10000 nM. In the case of `CCCCCCCCCCCCOC(=O)c1cccc(-c2cc(C(=O)Nc3ccncc3)ccc2C(C)N)c1` (stereo not drawn) [Compound 22, 2′-(1-Amino-ethyl)-5′-(pyridin-4-ylcarbamoyl)-biphenyl-3-carboxylic acid dodecyl ester], the IC50 is reported as 1000 to 10000 nM. Work on `CCCCCCCCCCCCCOC(=O)c1cccc(-c2cc(C(=O)Nc3ccncc3)ccc2C(C)N)c1` (stereo not drawn) [Compound 23, 2′-(1-Amino-ethyl)-5′-(pyridin-4-ylcarbamoyl)-biphenyl-3-carboxylic acid tridecyl ester] yielded an IC50 of 1000 to 10000 nM. For `CCCCCCCCCCCCCCCCOC(=O)c1cccc(-c2cc(C(=O)Nc3ccncc3)ccc2C(C)N)c1` (stereo not drawn) [Compound 24, 2′-(1-Amino-ethyl)-5′-(pyridin-4-ylcarbamoyl)-biphenyl-3-carboxylic acid hexadecyl ester], the IC50 was 1000 to 10000 nM. `C=CCCCCCCCCOC(=O)c1cccc(-c2cc(C(=O)Nc3ccncc3)ccc2C(C)N)c1` (stereo not drawn) [Compound 25, 2′-(1-Amino-ethyl)-5′-(pyridin-4-ylcarbamoyl)-biphenyl-3-carboxylic acid dec-9-enyl ester] was tested, and the IC50 was 100 to 1000 nM. With `CC(C)OC(=O)c1cccc(-c2cc(C(=O)Nc3ccncc3)ccc2C(C)N)c1` (stereo not drawn) [Compound 27, 2′-(1-Amino-ethyl)-5′-(pyridin-4-ylcarbamoyl)-biphenyl-3-carboxylic acid isopropyl ester] the IC50 was < 100 nM. For `CC(N)c1ccc(C(=O)Nc2ccncc2)cc1-c1cccc(C(=O)OC2CCCC2)c1` (stereo not drawn) [Compound 33, 2′-(1-Amino-ethyl)-5′-(pyridin-4-ylcarbamoyl)-biphenyl-3-carboxylic acid cyclopentyl ester], the IC50 was < 100 nM. `CC(N)c1ccc(C(=O)Nc2ccncc2)cc1-c1cccc(C(=O)OC2CCCCC2)c1` (stereo not drawn) [Compound 34, 2′-(1-Amino-ethyl)-5′-(pyridin-4-ylcarbamoyl)-biphenyl-3-carboxylic acid cyclohexyl ester] was tested, and the IC50 was < 100 nM. In the case of `CC(N)c1ccc(C(=O)Nc2ccncc2)cc1-c1cccc(C(=O)OCC2CC2)c1` (stereo not drawn) [Compound 36, 2′-(1-Amino-ethyl)-5′-(pyridin-4-ylcarbamoyl)-biphenyl-3-carboxylic acid cyclopropylmethyl ester], the IC50 is reported as < 100 nM. In the case of `CC(C)COC(=O)c1cccc(-c2cc(C(=O)Nc3ccncc3)ccc2C(C)N)c1` (stereo not drawn) [Compound 40, 2′-(1-Amino-ethyl)-5′-(pyridin-4-ylcarbamoyl)-biphenyl-3-carboxylic acid isobutyl ester], the IC50 is reported as < 100 nM. In the case of `CC(N)c1ccc(C(=O)Nc2ccncc2)cc1-c1cccc(C(=O)OCC2COc3ccccc3O2)c1` (stereo not drawn) [Compound 56, 2′-(1-Amino-ethyl)-5′-(pyridin-4-ylcarbamoyl)-biphenyl-3-carboxylic acid 2,3-dihydro-benzo[1,4]dioxin-2-ylmethyl ester], the IC50 is reported as 100 to 1000 nM. With `CC#CCOC(=O)c1cccc(-c2cc(C(=O)Nc3ccncc3)ccc2C(C)N)c1` (stereo not drawn) [Compound 59, 2′-(1-Amino-ethyl)-5′-(pyridin-4-ylcarbamoyl)-biphenyl-3-carboxylic acid but-2-ynyl ester] the IC50 was < 100 nM. In the case of `CC(N)c1ccc(C(=O)Nc2ccncc2F)cc1-c1cccc(C(=O)OCCF)c1` (stereo not drawn) [Compound 61, 2′-(1-Amino-ethyl)-5′-(3-fluoro-pyridin-4-ylcarbamoyl)-biphenyl-3-carboxylic acid 2-fluoro-ethyl ester], the IC50 is reported as 100 to 1000 nM. `CC(N)c1ccc(C(=O)Nc2ccncc2)cc1-c1cccc(C(=O)OCCCl)c1` (stereo not drawn) [Compound 62, 2′-(1-Amino-ethyl)-5′-(pyridin-4-ylcarbamoyl)-biphenyl-3-carboxylic acid 2-chloro-ethyl ester] was tested, and the IC50 was < 100 nM. Work on `CC(N)c1ccc(C(=O)Nc2ccncc2)cc1-c1cccc(C(=O)OCC(F)(F)F)c1` (stereo not drawn) [Compound 63, 2′-(1-Amino-ethyl)-5′-(pyridin-4-ylcarbamoyl)-biphenyl-3-carboxylic acid 2,2,2-trifluoro-ethyl ester] yielded an IC50 of 100 to 1000 nM. `CC(N)c1ccc(C(=O)Nc2ccncc2)cc1-c1cccc(C(=O)OCC(Cl)(Cl)Cl)c1` (stereo not drawn) [Compound 64, 2′-(1-Amino-ethyl)-5′-(pyridin-4-ylcarbamoyl)-biphenyl-3-carboxylic acid 2,2,2-trichloro-ethyl ester] was tested, and the IC50 was < 100 nM. With `CC(N)c1ccc(C(=O)Nc2ccncc2F)cc1-c1cccc(C(=O)OCCO)c1` (stereo not drawn) [Compound 67, 2′-(1-Amino-ethyl)-5′-(3-fluoro-pyridin-4-ylcarbamoyl)-biphenyl-3-carboxylic acid 2-hydroxy-ethyl ester] the IC50 was < 100 nM. For `CC(N)c1ccc(C(=O)Nc2ccncc2F)cc1-c1cccc(C(=O)OCCCO)c1` (stereo not drawn) [Compound 68, 2′-(1-Amino-ethyl)-5′-(3-fluoro-pyridin-4-ylcarbamoyl)-biphenyl-3-carboxylic acid 3-hydroxy-propyl ester], the IC50 was < 100 nM. For `CC(N)c1ccc(C(=O)Nc2ccncc2)cc1-c1cccc(C(=O)OCCCCCl)c1` (stereo not drawn) [Compound 69, 2′-(1-Amino-ethyl)-5′-(pyridin-4-ylcarbamoyl)-biphenyl-3-carboxylic acid 4-chloro-butyl ester], the IC50 was < 100 nM. For `CC(N)c1ccc(C(=O)Nc2ccncc2)cc1-c1cccc(C(=O)Oc2ccc(F)cc2)c1` (stereo not drawn) [Compound 72, 2′-(1-Amino-ethyl)-5′-(pyridin-4-ylcarbamoyl)-biphenyl-3-carboxylic acid 4-fluoro-phenyl ester], the IC50 was < 100 nM. In the case of `Cc1ccc(OC(=O)c2cccc(-c3cc(C(=O)Nc4ccncc4)ccc3C(C)N)c2)cc1` (stereo not drawn) [Compound 73, 2′-(1-Amino-ethyl)-5′-(pyridin-4-ylcarbamoyl)-biphenyl-3-carboxylic acid p-tolyl ester], the IC50 is reported as < 100 nM. `COc1cccc(OC)c1OC(=O)c1cccc(-c2cc(C(=O)Nc3ccncc3)ccc2C(C)N)c1` (stereo not drawn) [Compound 74, 2′-(1-Amino-ethyl)-5′-(pyridin-4-ylcarbamoyl)-biphenyl-3-carboxylic acid 2,6-dimethoxy-phenyl ester] gave an IC50 of 100 to 1000 nM. For `COc1cc(OC)cc(OC(=O)c2cccc(-c3cc(C(=O)Nc4ccncc4)ccc3C(C)N)c2)c1` (stereo not drawn) [Compound 75, 2′-(1-Amino-ethyl)-5′-(pyridin-4-ylcarbamoyl)-biphenyl-3-carboxylic acid 3,5-dimethoxy-phenyl ester], the IC50 was < 100 nM. With `COc1cc(OC)cc(OC(=O)c2cccc(-c3cc(C(=O)Nc4ccncc4F)ccc3C(C)N)c2)c1` (stereo not drawn) [Compound 76, 2′-(1-Amino-ethyl)-5′-(3-fluoro-pyridin-4-ylcarbamoyl)-biphenyl-3-carboxylic acid 3,5-dimethoxy-phenyl ester] the IC50 was 100 to 1000 nM. With `COc1ccc(OC(=O)c2cccc(-c3cc(C(=O)Nc4ccncc4)ccc3C(C)N)c2)cc1OC` (stereo not drawn) [Compound 77, 2′-(1-Amino-ethyl)-5′-(pyridin-4-ylcarbamoyl)-biphenyl-3-carboxylic acid 3,4-dimethoxy-phenyl ester] the IC50 was < 100 nM.
